In one experiment the test system is HEK-293 cells. As to the kind of experiment: HEK-293 cytotoxicity detection (CellTiter-Glo). It is filed as cell-based. To be noted: Homo sapiens, 72 h incubation, read-out: HEK293.
Excerpt: (§1) The IC50 (DC50) value of a compound can be obtained by fitting the following equation Y=Bottom+(TOP−Bottom)/(1+((IC50/X)^hillslope)) wherein, X and Y are known values, and IC50, Hillslope, Top and Bottom are the parameters obtained by fitting with software. Y is the inhibition percentage (calculated from the equation), X is the concentration of the compound; IC50 is the concentration of the compound when the 50% inhibition is reached. The smaller the IC50 value is, the stronger the inhibitory ability of the compound is. Vice versa, the higher the IC50 value is, the weaker the ability the inhibitory ability of the compound is; Hillslope represents the slope of the fitted curve, generally around 1*; Bottom represents the minimum value of the curve obtained by data fitting, which is generally 0%±20%; Top represents the maximum value of the curve obtained by data fitting, which is generally 100%±20%. The experimental data were fitted by calculating and analyzing with Dotmatics data analysis software. HEK-293 Cell Treatment
HEK-293 cells were treated with compounds diluted in 0.2% DMSO, dilution was done according to the following protocol: (1) making 500×stock solution in DMSO from 5 mM by 4-fold dilution, total 8 doses were included; (2) making 2×solution in cell culture medium by transferring 0.5 ul 500×stock solution into 125 ul medium; (3) adding 50 ul of 2×solution to cells for incubation of 72 h.
25 μl of the CellTiter-Glo® Reagent [(Promega)—Cat No. G7572] was added to each well in the 96-well plate. The contents were mixed for 2 minutes on an orbital shaker to induce cell lysis. The plate was then allowed to incubate at room temperature for 10 minutes to stabilize luminescent signal. Luminescence was recorded on BMG PheraStar with luminescence protocol.
as §1, with “IC50” for “IC50 (DC50)”, “Wherein,” for “wherein,”, “software.” for “software. HEK-293 Cell Treatment”
On the technique in general: ATP-based viability assays read luminescence as a measure of living cells.

A further experiment addresses T1, BTK (Homo sapiens, UniProt Q06187).
T1 construct: endogenous in cells; host or cells: TMD-8 cells
The experiment is described as follows: BTK degradation in TMD-8 cells (HTRF assay). The class given is cell-based. To be noted: 6 h treatment, HTRF BTK degradation IC50 (DC50). The method, then:
TMD-8 cells were treated with compounds diluted in 0.2% DMSO, dilution was done according to the following protocol: (1) making 500×stock solution in DMSO from 1 mM by 6-fold dilution, total 8 doses were included; (2) making 2×solution in cell culture medium by transferring 0.5 μl 500×stock solution into 125 μl medium; (3) adding 15 μl of 2×solution to cells for incubation of 6 h.
After 6 h treatment, 10 μl 4×lysis buffer was added to each well; the plate was sealed and incubated for 30 min at room temperature on a plate shaker; Once the cells was lysed, 16 μL of cell lysate were transferred to a PE 384-well HTRF detection plate; 4 μL of pre-mixed HTRF antibodies were added to each well; the plate was covered with a plate sealer, and then spinned at 1000 rpm for 1 min, then incubated overnight at room temperature; the results were read on BMG PheraStar with HTRF protocol (337 nm-665 nm-620 nm).
as §1
On the technique in general: Time-resolved FRET reads energy transfer from a long-lived donor to a nearby acceptor.

The values below come from patent US12521440B2, “Degradation of bruton's tyrosine kinase (BTK) by conjugation of BTK inhibitors with E3 ligase ligand and methods of use” (BeOne Medicines I GmbH, priority 2021, dated 2026).

Structures are written as SMILES. pIC50: −log10 of the molar value.

T1 sequence (Q06187 whole entry): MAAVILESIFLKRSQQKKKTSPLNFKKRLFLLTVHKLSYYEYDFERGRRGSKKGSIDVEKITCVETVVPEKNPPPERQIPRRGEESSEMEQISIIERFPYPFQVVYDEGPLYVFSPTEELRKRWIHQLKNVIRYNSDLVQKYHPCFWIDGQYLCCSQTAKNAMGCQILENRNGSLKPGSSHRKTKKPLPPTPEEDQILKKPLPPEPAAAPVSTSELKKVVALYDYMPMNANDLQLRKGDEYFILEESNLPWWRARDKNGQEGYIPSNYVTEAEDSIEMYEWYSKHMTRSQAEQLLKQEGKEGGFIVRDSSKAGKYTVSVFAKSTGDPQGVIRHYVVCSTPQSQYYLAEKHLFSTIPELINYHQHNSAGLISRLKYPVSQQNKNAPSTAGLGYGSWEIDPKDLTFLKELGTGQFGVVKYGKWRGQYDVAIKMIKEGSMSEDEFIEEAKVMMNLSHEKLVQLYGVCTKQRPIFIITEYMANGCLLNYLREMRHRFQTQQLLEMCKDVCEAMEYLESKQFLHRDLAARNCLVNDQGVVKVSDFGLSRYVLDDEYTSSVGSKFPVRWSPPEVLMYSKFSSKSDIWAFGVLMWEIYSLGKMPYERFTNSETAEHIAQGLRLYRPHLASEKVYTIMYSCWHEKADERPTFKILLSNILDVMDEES

Consider `Cc1cc(-c2cc(Nc3ccc(N4CCN(C(=O)C5CN(c6ccc(C7CCC(=O)NC7=O)cc6)C5)CC4)cn3)ncn2)ccc1[C@@H](C)NC(=O)c1nc(C(C)(C)C)no1` (stereo partly drawn) [Example 26, 3-(tert-butyl)-N-((1R)-1-(4-(6-((5-(4-(1-(4-(2,6-dioxopiperidin-3-yl)phenyl)azetidine-3-carbonyl)piperazin-1-yl)pyridin-2-yl)amino)pyrimidin-4-yl)-2-methylphenyl)ethyl)-1,2,4-oxadiazole-5-carboxamide], for which the pIC50 in the experiment on HEK-293 cells was less than 5.00. In addition, it took 0.899 nM to reach half-maximal degradation on BTK (DC50).

Regarding `Cc1cc(-c2cc(Nc3ccc(N4CCN(C(=O)C5CN(c6cc(F)c(C7CCC(=O)NC7=O)c(F)c6)C5)CC4)cn3)ncn2)ccc1[C@@H](C)NC(=O)c1nc(C(C)(C)C)no1` (stereo partly drawn) [Example 27, 3-(tert-butyl)-N-((1R)-1-(4-(6-((5-(4-(1-(4-(2,6-dioxopiperidin-3-yl)-3,5-difluorophenyl)azetidine-3-carbonyl)piperazin-1-yl)pyridin-2-yl)amino)pyrimidin-4-yl)-2-methylphenyl)ethyl)-1,2,4-oxadiazole-5-carboxamide], the pIC50 in the experiment on HEK-293 cells was less than 5.00. At BTK, this compound displayed a DC50 of 3.57 nM.

For the compound `Cc1cc(-c2cc(Nc3ccc(N4CCN(C(=O)C5CCN(c6ccc(N7CCC(=O)NC7=O)cc6)CC5)CC4)cn3)ncn2)ccc1[C@@H](C)NC(=O)c1nc(C(C)(C)C)no1` [Example 28, (R)-3-(tert-butyl)-N-(1-(4-(6-((5-(4-(1-(4-(2,4-dioxotetrahydropyrimidin-1(2H)-yl)phenyl)piperidine-4-carbonyl)piperazin-1-yl)pyridin-2-yl)amino)pyrimidin-4-yl)-2-methylphenyl)ethyl)-1,2,4-oxadiazole-5-carboxamide], the pIC50 with HEK-293 cells is less than 5.00. Also, the half-maximal degradation concentration (DC50) at BTK stood at 1.66 nM.

Take `Cc1cc(-c2cc(Nc3ccc(N4CCN(C(=O)C5CCN(c6ccc(N7CCC(=O)NC7=O)cc6)C5)CC4)cn3)ncn2)ccc1[C@@H](C)NC(=O)c1nc(C(C)(C)C)no1` (stereo partly drawn) [Example 29, 3-(tert-butyl)-N-((1R)-1-(4-(6-((5-(4-(1-(4-(2,4-dioxotetrahydropyrimidin-1(2H)-yl)phenyl)pyrrolidine-3-carbonyl)piperazin-1-yl)pyridin-2-yl)amino)pyrimidin-4-yl)-2-methylphenyl)ethyl)-1,2,4-oxadiazole-5-carboxamide]: in the experiment on HEK-293 cells, the pIC50 is less than 5.00. For the same compound, half-maximal degradation on BTK (DC50) was put at 0.836 nM.

Take `Cc1cc(-c2cc(Nc3ccc(N4CC5(CN(CC6CCN(c7ccc(N8CCC(=O)NC8=O)cc7)CC6)C5)C4)cn3)ncn2)ccc1[C@@H](C)NC(=O)c1nc(C(C)(C)C)no1` [Example 30, (R)-3-(tert-butyl)-N-(1-(4-(6-((5-(6-((1-(4-(2,4-dioxotetrahydropyrimidin-1(2H)-yl)phenyl)piperidin-4-yl)methyl)-2,6-diazaspiro [3.3]heptan-2-yl)pyridin-2-yl)amino)pyrimidin-4-yl)-2-methylphenyl)ethyl)-1,2,4-oxadiazole-5-carboxamide]: in the experiment with HEK-293 cells, the pIC50 is 6.00. For the same compound, half-maximal degradation on BTK (DC50) was put at 0.539 nM.

Regarding `Cc1cc(-c2cc(Nc3ccc(N4CCC5(CCN(CC6CCN(c7ccc(N8CCC(=O)NC8=O)cc7)CC6)C5)CC4)cn3)ncn2)ccc1[C@@H](C)NC(=O)c1nc(C(C)(C)C)no1` [Example 31, (R)-3-(tert-butyl)-N-(1-(4-(6-((5-(2-((1-(4-(2,4-dioxotetrahydropyrimidin-1(2H)-yl)phenyl)piperidin-4-yl)methyl)-2,8-diazaspiro[4.5]decan-8-yl)pyridin-2-yl)amino)pyrimidin-4-yl)-2-methylphenyl)ethyl)-1,2,4-oxadiazole-5-carboxamide], in the experiment with HEK-293 cells, the pIC50 is 5.73. Besides, at BTK, the 50% degradation concentration (DC50) stood at 1.99 nM.

In the case of `Cc1cc(-c2cc(Nc3ccc(N4CCC5(CC4)CN(CC4CCN(c6ccc(N7CCC(=O)NC7=O)cc6)CC4)C5)cn3)ncn2)ccc1[C@@H](C)NC(=O)c1nc(C(C)(C)C)no1` [Example 32, (R)-3-(tert-butyl)-N-(1-(4-(6-((5-(2-((1-(4-(2,4-dioxotetrahydropyrimidin-1(2H)-yl)phenyl)piperidin-4-yl)methyl)-2,7-diazaspiro [3.5]nonan-7-yl)pyridin-2-yl)amino)pyrimidin-4-yl)-2-methylphenyl)ethyl)-1,2,4-oxadiazole-5-carboxamide], the pIC50 with HEK-293 cells is 5.72. It took 1.73 nM to reach half-maximal degradation on BTK (DC50).

On to `Cc1cc(-c2cc(Nc3ccc(N4CC5(CCN(CC6CCN(c7ccc(N8CCC(=O)NC8=O)cc7)CC6)CC5)C4)cn3)ncn2)ccc1[C@@H](C)NC(=O)c1nc(C(C)(C)C)no1` [Example 33, (R)-3-(tert-butyl)-N-(1-(4-(6-((5-(7-((1-(4-(2,4-dioxotetrahydropyrimidin-1(2H)-yl)phenyl)piperidin-4-yl)methyl)-2,7-diazaspiro [3.5]nonan-2-yl)pyridin-2-yl)amino)pyrimidin-4-yl)-2-methylphenyl)ethyl)-1,2,4-oxadiazole-5-carboxamide], for which the pIC50 in the experiment with HEK-293 cells is less than 5.00. This compound returned a DC50 on BTK of 1.3 nM.

Turning to `Cc1cc(-c2cc(Nc3ccc(N4CCC5(CCN(CC6CCN(c7ccc(N8CCC(=O)NC8=O)cc7)CC6)CC5)CC4)cn3)ncn2)ccc1[C@@H](C)NC(=O)c1nc(C(C)(C)C)no1` [Example 34, (R)-3-(tert-butyl)-N-(1-(4-(6-((5-(9-((1-(4-(2,4-dioxotetrahydropyrimidin-1(2H)-yl)phenyl)piperidin-4-yl)methyl)-3,9-diazaspiro [5.5]undecan-3-yl)pyridin-2-yl)amino)pyrimidin-4-yl)-2-methylphenyl)ethyl)-1,2,4-oxadiazole-5-carboxamide], the pIC50 in the experiment on HEK-293 cells is 6.05. This compound came in with a half-maximal degradation concentration (DC50) on BTK of 1.88 nM.

As for `Cc1cc(-c2cc(Nc3ccc(N4CC5(CN(C(=O)C6CN(c7ccc(N8CCC(=O)NC8=O)cc7)C6)C5)C4)cn3)ncn2)ccc1[C@@H](C)NC(=O)c1nc(C(C)(C)C)no1` [Example 35, (R)-3-(tert-butyl)-N-(1-(4-(6-((5-(6-(1-(4-(2,4-dioxotetrahydropyrimidin-1(2H)-yl)phenyl)azetidine-3-carbonyl)-2,6-diazaspiro [3.3]heptan-2-yl)pyridin-2-yl)amino)pyrimidin-4-yl)-2-methylphenyl)ethyl)-1,2,4-oxadiazole-5-carboxamide], the pIC50 in the experiment on HEK-293 cells is less than 5.00. This compound yielded a half-maximal degradation concentration (DC50) on BTK of 0.981 nM.

In the case of `Cc1cc(-c2cc(Nc3ccc(N4CCC5(CC4)CN(C(=O)C4CN(c6ccc(N7CCC(=O)NC7=O)cc6)C4)C5)cn3)ncn2)ccc1[C@@H](C)NC(=O)c1nc(C(C)(C)C)no1` [Example 36, (R)-3-(tert-butyl)-N-(1-(4-(6-((5-(2-(1-(4-(2,4-dioxotetrahydropyrimidin-1(2H)-yl)phenyl)azetidine-3-carbonyl)-2,7-diazaspiro [3.5]nonan-7-yl)pyridin-2-yl)amino)pyrimidin-4-yl)-2-methylphenyl)ethyl)-1,2,4-oxadiazole-5-carboxamide], the pIC50 in the experiment on HEK-293 cells was less than 5.00. This compound returned a 50% degradation concentration (DC50) at BTK of 0.566 nM.

As to `Cc1cc(-c2cc(Nc3ccc(N4CC5(CN(C(=O)C6CCN(c7ccc(N8CCC(=O)NC8=O)cc7)C6)C5)C4)cn3)ncn2)ccc1[C@@H](C)NC(=O)c1nc(C(C)(C)C)no1` (stereo partly drawn) [Example 37, 3-(tert-butyl)-N-((1R)-1-(4-(6-((5-(6-(1-(4-(2,4-dioxotetrahydropyrimidin-1(2H)-yl)phenyl)pyrrolidine-3-carbonyl)-2,6-diazaspiro [3.3]heptan-2-yl)pyridin-2-yl)amino)pyrimidin-4-yl)-2-methylphenyl)ethyl)-1,2,4-oxadiazole-5-carboxamide], the pIC50 with HEK-293 cells is less than 5.00. The compound also displayed a DC50 at BTK of 0.835 nM.

The DC50 is the concentration at which degradation of the target reaches its halfway point. High values mean degradation only at high concentration, low ones degradation at low concentration.
